Results from US20260217735A1, “HETEROCYCLES AND USES THEREOF” (Kumquat Biosciences Inc., priority 2023, published 2026).

Assays:
Type in all cases: biochemical
KRAS G12D = biological target: T1, KRAS G12D (Homo sapiens, UniProt P01116, G12D); assay: HTRF assay, KRAS G12D interaction with SOS1; details: bins <500 nM / 500 nM to 1000 nM, read-out: Inhibition of KRAS G12D (IC50)
T1 construct: made in house; host or cells: E. coli, e.g. BL21 (DE3)
From the text: (§1) This assay can be also used to assess a selective inhibition or reduction of signaling output of a mutant Ras protein relative to a wildtype, or relative to a different mutant Ras protein. For example, the equilibrium interaction of wildtype KRAS or K-Ras mutant (e.g., wildtype or a mutant thereof) with SOS1 (e.g., hSOS1) can be assessed as a proxy or an indication for the ability of a subject compound to bind and inhibit Ras protein. The HTRF assay detects from (i) a fluorescence resonance energy transfer (FRET) donor (e.g., antiGST-Europium) that is bound to GST-tagged K-Ras mutant to (ii) a FRET acceptor (e.g., anti-6His-XL665) bound to a His-tagged hSOSL1.
(§2) The assay buffer can contain ~5 mM HEPES pH 7.4, ~150 mM NaCl, ~1 mM DTT, 0.05% BSA and 0.0025% (v/v) Igepal. A Ras working solution is prepared in an assay buffer containing typically a suitable amount of the protein construct (e.g., GST-tagged K-Ras mutant) and the FRET donor (e.g., antiGST-Eu(K) from Cisbio, France). A SOS1 working solution is prepared in an assay buffer containing suitable amount of the protein construct (e.g., His-hSOS1) and the FRET acceptor (e.g., anti-6His-XL665 from Cisbio, France). A suitable amount of the protein construct will depend on the range of activity or range of IC50 values being detected or under investigation. For detecting an IC50 within a range of 500 nM, the protein constructs of the same range of molarity can be utilized.
(§3) A fixed volume of DMSO with or without test compound is transferred into a 384-well plate. Ras working solution is added to all wells of the test plate. SOS1 working solution is added to all wells except for those that are subsequently filled with inhibitor control solution. Upon incubation for about 10 minutes or longer, the fluorescence is measured with a M1000Pro plate reader (Tecan) using HTRF detection (excitation 337 nm, emission 1: 620 nm, emission 2: 665 nm). Compounds are tested in duplicate at different concentrations (for example, 10 μM, 2.5 μM, 0.63 μM, 0.16 μM, 0.04 μM, 0.01 μM test compound). The ratiometric data (i.e., emission 2 divided by emission 1) is used to calculate IC50 values against Ras using GraphPad Prism (GraphPad software). Signaling output measured in terms of IC50 values can be obtained and a ratio of IC50 against one mutant relative to another mutant can be calculated. For instance, a selective reduction of K-Ras G12S signaling output can be evidenced by a ratio greater than one. In particular, a selective reduction of K-Ras G12S signaling relative to K-Ras WT signaling is evidenced if the ratio of IC50 (against K-Ras WT) to IC50 (against K-Ras G12S) is greater than 1.

KRAS WT = biological target: T2, KRAS WT (Homo sapiens, UniProt P01116); assay: HTRF assay, wildtype KRAS interaction with SOS1; details: bins <500 nM / 500 nM to 1000 nM, read-out: Inhibition of KRAS WT (IC50)
T2 construct: made in house; host or cells: E. coli, e.g. BL21 (DE3)
From the text: as §1, §2, §3

KRAS G12V = biological target: T3, KRAS G12V (Homo sapiens, UniProt P01116, G12V); assay: HTRF assay, KRAS G12V interaction with SOS1; details: bins <500 nM / 500 nM to 1000 nM, read-out: Inhibition of KRAS G12V (IC50)
T3 construct: made in house; host or cells: E. coli, e.g. BL21 (DE3)
From the text: as §1, §2, §3

KRAS G12S = biological target: T4, KRAS G12S (Homo sapiens, UniProt P01116, G12S); assay: HTRF assay, KRAS G12S interaction with SOS1; details: bins <500 nM / 500 nM to 1000 nM, read-out: Inhibition of KRAS G12S (IC50)
T4 construct: made in house; host or cells: E. coli, e.g. BL21 (DE3)
From the text: as §1, §2, §3

Measured: IC50

T4 sequence (P01116 1-188 isoform P01116-2 G12S): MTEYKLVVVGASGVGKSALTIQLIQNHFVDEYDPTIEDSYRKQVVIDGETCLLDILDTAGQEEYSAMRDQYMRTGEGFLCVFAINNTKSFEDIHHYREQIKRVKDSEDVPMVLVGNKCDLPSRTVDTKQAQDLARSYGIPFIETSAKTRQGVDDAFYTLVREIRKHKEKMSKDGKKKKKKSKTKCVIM
T3 sequence (P01116 1-188 isoform P01116-2 G12V): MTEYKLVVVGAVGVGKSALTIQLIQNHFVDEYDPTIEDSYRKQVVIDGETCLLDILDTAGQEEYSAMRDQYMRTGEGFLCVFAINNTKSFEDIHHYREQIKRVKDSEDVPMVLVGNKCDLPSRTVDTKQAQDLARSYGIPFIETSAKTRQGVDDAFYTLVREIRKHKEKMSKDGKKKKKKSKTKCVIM
T2 sequence (P01116 1-188 isoform P01116-2): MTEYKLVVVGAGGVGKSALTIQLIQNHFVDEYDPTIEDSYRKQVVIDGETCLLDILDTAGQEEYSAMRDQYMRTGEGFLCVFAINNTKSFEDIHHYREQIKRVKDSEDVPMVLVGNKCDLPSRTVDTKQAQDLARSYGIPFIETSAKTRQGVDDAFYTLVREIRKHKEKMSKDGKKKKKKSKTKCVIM
T1 sequence (P01116 1-188 isoform P01116-2 G12D): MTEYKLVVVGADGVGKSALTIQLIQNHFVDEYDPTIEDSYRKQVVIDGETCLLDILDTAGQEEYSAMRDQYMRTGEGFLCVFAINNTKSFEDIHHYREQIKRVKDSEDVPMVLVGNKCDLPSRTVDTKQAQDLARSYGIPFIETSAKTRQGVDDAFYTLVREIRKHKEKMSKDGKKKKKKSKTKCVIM

CCN(c1nc(OC[C@@]23CCCN2C[C@H](F)C3)nc2c(F)c(-c3ccc(F)c4sc(N)c(C#N)c34)c(C3CC3)cc12)[C@@H]1CCN(C(=O)n2cc(C)nc2C)[C@@H]1C (atropisomer, axis not shown; (aS)) [Compound 190, (S)-2-amino-4-(6-cyclopropyl-4-(((2R,3R)-1-(2,4-dimethyl-1H-imidazole-1-carbonyl)-2-methylpyrrolidin-3-yl)(ethyl)amino)-8-fluoro-2-(((2R,7aS)-2-fluorotetrahydro-1H-pyrrolizin-7a(5H)-yl)methoxy)quinazolin-7-yl)-7-fluorobenzo[b]thiophene-3-carbonitrile]
< 500 nM: all assays above

CN(c1nc(OC[C@@]23CCCN2C[C@H](F)C3)nc2c(F)c(-c3ccc(F)c4sc(N)c(C#N)c34)c(Cl)cc12)C1CN(C(=O)n2ccnc2)CC1F (single isomer, unassigned) [Compound 191]
< 500 nM: all assays above

Cc1cn(C(=O)N2CC[C@@H](N(C)c3nc(OC[C@@]45CCCN4C[C@H](F)C5)nc4c(F)c(-c5ccc(F)c6sc(N)c(C#N)c56)c(Cl)cc34)[C@H]2C)c(C)n1 [Compound 105, 2-amino-4-(6-chloro-4-(((2R,3R)-1-(2,4-dimethyl-1H-imidazole-1-carbonyl)-2-methylpyrrolidin-3-yl)(methyl)amino)-8-fluoro-2-(((2R,7aS)-2-fluorotetrahydro-1H-pyrrolizin-7a(5H)-yl)methoxy)quinazolin-7-yl)-7-fluorobenzo[b]thiophene-3-carbonitrile]
< 500 nM: all assays above

CCN(c1nc(OC[C@@]23CCCN2C[C@H](F)C3)nc2c(F)c(-c3cccc4sc(N)c(C#N)c34)c(Cl)cc12)[C@@H]1CCN(C(=O)n2cc(C#N)nc2C)[C@@H]1C [Compound 113, 1-((2R,3R)-3-((7-(2-amino-3-cyanobenzo[b]thiophen-4-yl)-6-chloro-8-fluoro-2-(((2R,7aS)-2-fluorotetrahydro-1H-pyrrolizin-7a(5H)-yl)methoxy)quinazolin-4-yl)(ethyl)amino)-2-methylpyrrolidine-1-carbonyl)-2-methyl-1H-imidazole-4-carbonitrile]
< 500 nM: all assays above

Cc1ncn(C(=O)N2C[C@H]3[C@@H]2CCCN3c2nc(OC[C@]34CCCN3C[C@@H](F)C4)nc3c(F)c(-c4ccc(F)c5sc(N)c(C#N)c45)c(Cl)cc23)c1C [Compound 129, 2-amino-4-(6-chloro-4-((1S,6S)-7-(4,5-dimethyl-1H-imidazole-1-carbonyl)-2,7-diazabicyclo[4.2.0]octan-2-yl)-8-fluoro-2-(((2S,7aR)-2-fluorotetrahydro-1H-pyrrolizin-7a(5H)-yl)methoxy)quinazolin-7-yl)-7-fluorobenzo[b]thiophene-3-carbonitrile]
< 500 nM: all assays above

CCN(c1nc(OC[C@@]23CCCN2C[C@H](F)C3)nc2c(F)c(-c3ccc(F)c4sc(N)c(C#N)c34)c(Cl)cc12)[C@@H]1CCN(C(=O)n2cnc3c2CCC3)[C@@H]1C [Compound 132, 2-amino-4-(6-chloro-4-(ethyl((2R,3R)-2-methyl-1-(1,4,5,6-tetrahydrocyclopenta[d]imidazole-1-carbonyl)pyrrolidin-3-yl)amino)-8-fluoro-2-(((2R,7aS)-2-fluorotetrahydro-1H-pyrrolizin-7a(5H)-yl)methoxy)quinazolin-7-yl)-7-fluorobenzo[b]thiophene-3-carbonitrile]
< 500 nM: all assays above

CC1CC(N(C)c2nc(OC[C@@]34CCCN3C[C@H](F)C4)nc3c(F)c(-c4ccc(F)c5sc(N)c(C#N)c45)c(Cl)cc23)CN1C(=O)n1cnc(F)n1 (stereo partly drawn) [Compound 146, 2-amino-4-(6-chloro-8-fluoro-4-((1-(3-fluoro-1H-1,2,4-triazole-1-carbonyl)-5-methylpyrrolidin-3-yl)(methyl)amino)-2-(((2R,7aS)-2-fluorotetrahydro-1H-pyrrolizin-7a(5H)-yl)methoxy)quinazolin-7-yl)-7-fluorobenzo[b]thiophene-3-carbonitrile]
< 500 nM: all assays above

CC1CC(N(C)c2nc(OC[C@@]34CCCN3C[C@H](F)C4)nc3c(F)c(-c4ccc(F)c5sc(N)c(C#N)c45)c(Cl)cc23)CCN1C(=O)n1ccnc1 (stereo partly drawn) [Compound 153, 4-(4-((1-(1H-imidazole-1-carbonyl)-2-methylpiperidin-4-yl)(methyl)amino)-6-chloro-8-fluoro-2-(((2R,7aS)-2-fluorotetrahydro-1H-pyrrolizin-7a(5H)-yl)methoxy)quinazolin-7-yl)-2-amino-7-fluorobenzo[b]thiophene-3-carbonitrile]
< 500 nM: KRAS WT | KRAS G12V | KRAS G12S

COCC1([C@H]2N(C(=O)n3cnc(C)c3)C[C@]23CCCCN(c2nc(OC[C@@]45CCCN4C[C@H](F)C5)nc4c(F)c(-c5ccc(F)c6sc(N)c(C#N)c56)c(Cl)cc24)C3)CC1 [Compound 203, 2-amino-4-(6-chloro-8-fluoro-2-(((2R,7aS)-2-fluorotetrahydro-1H-pyrrolizin-7a(5H)-yl)methoxy)-4-((1S,4R)-1-(1-(methoxymethyl)cyclopropyl)-2-(4-methyl-1H-imidazole-1-carbonyl)-2,6-diazaspiro[3.6]decan-6-yl)quinazolin-7-yl)-7-fluorobenzo[b]thiophene-3-carbonitrile]
< 500 nM: all assays above

Cc1ncn(C(=O)N2CC3CCCN(c4nc(OC[C@@]56CCCN5C[C@H](F)C6)nc5c(F)c(-c6ccc(F)c7sc(N)c(C#N)c67)c(Cl)cc45)C3C2)c1C (stereo partly drawn) [Compound 206, 2-amino-4-(6-chloro-4-(6-(4,5-dimethyl-1H-imidazole-1-carbonyl)octahydro-1H-pyrrolo[3,4-b]pyridin-1-yl)-8-fluoro-2-(((2R,7aS)-2-fluorotetrahydro-1H-pyrrolizin-7a(5H)-yl)methoxy)quinazolin-7-yl)-7-fluorobenzo[b]thiophene-3-carbonitrile]
< 500 nM: all assays above

Cc1cn(C(=O)N2C[C@]3(CCCCN(c4nc(OC[C@@]56CCCN5C[C@H](F)C6)nc5c(F)c(-c6ccc(F)c7sc(N)c(C#N)c67)c(Cl)cc45)C3)[C@H]2C2(C)CC2)cn1 [Compound 207, 2-amino-4-(6-chloro-8-fluoro-2-(((2R,7aS)-2-fluorotetrahydro-1H-pyrrolizin-7a(5H)-yl)methoxy)-4-((1R,4R)-2-(4-methyl-1H-imidazole-1-carbonyl)-1-(1-methylcyclopropyl)-2,6-diazaspiro[3.6]decan-6-yl)quinazolin-7-yl)-7-fluorobenzo[b]thiophene-3-carbonitrile]
< 500 nM: all assays above
